Laboratory results reported in ChEMBL document CHEMBL1126580, “Enantiospecific syntheses of alpha-(fluoromethyl)tryptophan analogues: interactions with tryptophan hydroxylase and aromatic L-amino acid decarboxylase” (J Med Chem, 1993).

Target: T1, Aromatic-L-amino-acid decarboxylase (Mus musculus) (UniProt O88533)
T1 sequence (whole entry): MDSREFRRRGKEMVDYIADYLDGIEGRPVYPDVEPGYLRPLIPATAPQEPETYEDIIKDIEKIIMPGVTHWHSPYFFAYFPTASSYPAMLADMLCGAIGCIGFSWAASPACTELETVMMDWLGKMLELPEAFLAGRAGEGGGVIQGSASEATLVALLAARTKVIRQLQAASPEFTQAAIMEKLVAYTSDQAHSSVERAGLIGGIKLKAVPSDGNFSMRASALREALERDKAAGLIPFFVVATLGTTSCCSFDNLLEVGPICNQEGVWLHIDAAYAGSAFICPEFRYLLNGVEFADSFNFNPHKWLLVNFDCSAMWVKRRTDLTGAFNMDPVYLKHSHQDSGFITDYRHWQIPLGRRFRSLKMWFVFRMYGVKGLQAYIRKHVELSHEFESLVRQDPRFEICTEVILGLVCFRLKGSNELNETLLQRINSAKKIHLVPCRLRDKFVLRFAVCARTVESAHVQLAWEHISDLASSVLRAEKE
Test: First-order inactivation rate constant (k2) was evaluated as an inhibitor of murine liver aromatic L-amino acid decarboxylase (AADC)

k2: 2.26 min⁻¹
SMILES: N[C@@](CF)(Cc1c[nH]c2ccc(O)cc12)C(=O)O
